This note sets out measurements from ChEMBL document CHEMBL1201862, “PubChem BioAssay data set” (2004).

In data set [1] the target is T1, Heat shock factor protein 1 (Mus musculus, UniProt P38532).
T1 sequence (P38532 whole entry): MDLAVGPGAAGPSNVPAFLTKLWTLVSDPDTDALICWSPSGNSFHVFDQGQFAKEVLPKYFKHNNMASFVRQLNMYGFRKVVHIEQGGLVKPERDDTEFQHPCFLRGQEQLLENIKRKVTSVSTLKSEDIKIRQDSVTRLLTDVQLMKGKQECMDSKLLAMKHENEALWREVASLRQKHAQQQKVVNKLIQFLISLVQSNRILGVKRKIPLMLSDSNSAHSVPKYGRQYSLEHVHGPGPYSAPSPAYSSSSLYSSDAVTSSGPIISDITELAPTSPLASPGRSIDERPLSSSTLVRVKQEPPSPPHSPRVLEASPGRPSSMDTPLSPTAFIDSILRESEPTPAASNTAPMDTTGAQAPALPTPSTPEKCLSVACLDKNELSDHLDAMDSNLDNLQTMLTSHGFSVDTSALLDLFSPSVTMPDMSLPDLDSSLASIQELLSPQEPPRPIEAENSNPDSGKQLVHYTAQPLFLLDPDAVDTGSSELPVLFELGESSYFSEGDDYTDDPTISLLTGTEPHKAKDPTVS
Put plainly: HSF1 potentiators in luciferase reporter cells, confirmation, cell-based, NIH3T3, luminescence, dose retest (AID 435004).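 Further: stress induced by proteasome inhibitor MG132 added 30 min after compound; luciferase reporter driven by HSF1 response element in NIH3T3 cells; actives raise luminescence as potentiators of the MG132 stress response.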 It is filed as functional.

Data set [2] concerns the target T2, Corticotropin-releasing factor receptor 2/Corticotropin-releasing factor-binding protein (Homo sapiens, UniProt P24387+Q13324).
T2 sequence (Q13324 whole entry): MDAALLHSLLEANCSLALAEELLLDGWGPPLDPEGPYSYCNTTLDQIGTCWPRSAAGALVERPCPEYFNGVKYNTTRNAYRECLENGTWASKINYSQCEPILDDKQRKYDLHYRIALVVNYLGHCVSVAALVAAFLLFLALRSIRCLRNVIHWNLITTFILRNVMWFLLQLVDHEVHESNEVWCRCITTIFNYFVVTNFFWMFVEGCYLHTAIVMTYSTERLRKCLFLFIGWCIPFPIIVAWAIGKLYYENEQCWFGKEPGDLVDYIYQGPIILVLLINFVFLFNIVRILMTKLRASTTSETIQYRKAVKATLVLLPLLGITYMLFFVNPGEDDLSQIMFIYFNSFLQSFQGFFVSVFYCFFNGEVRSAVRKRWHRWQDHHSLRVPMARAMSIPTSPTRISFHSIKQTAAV
T2 sequence (P24387 whole entry): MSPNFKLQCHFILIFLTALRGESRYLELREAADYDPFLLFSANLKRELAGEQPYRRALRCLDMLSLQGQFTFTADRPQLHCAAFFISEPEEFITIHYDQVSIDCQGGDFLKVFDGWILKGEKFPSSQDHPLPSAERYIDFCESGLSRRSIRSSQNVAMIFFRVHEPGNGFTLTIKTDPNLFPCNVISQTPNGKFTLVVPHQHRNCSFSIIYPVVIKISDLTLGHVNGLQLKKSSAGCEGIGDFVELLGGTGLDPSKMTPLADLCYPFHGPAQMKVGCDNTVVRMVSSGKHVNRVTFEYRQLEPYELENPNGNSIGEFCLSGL
As to the kind of experiment: activators of CRF receptor 2 with binding protein – uHTS hits, confirmation (AID 602473). Particulars: read-out: EC50_Mean. It counts as functional.

Data set [3] can be described thus: Luminescence Cell-Based Dose Response HTS to Identify Inhibitors of 5'UTR Stem-Loop Driven Prion Protein mRNA Translation in H4 Neuroglioblastoma Cells. [Related pubchem assays: 1827 (Project Summary), 1813 (Primary HTS)]. It counts as functional.
A short description of data set [4]: inhibitors of firefly luciferase expression or activity, dose response, H4 neuroglioma cells, luminescence (AID 1990). It is filed as functional, cell-based.
Data set [5] is described as follows: inhibitors of SNCA 5'UTR-driven reporter translation, confirmation, H4 neuroglioma cells, luminescence (AID 1988). It is filed as functional, cell-based.
Data set [6] concerns the target T2, Corticotropin-releasing factor receptor 2/Corticotropin-releasing factor-binding protein. Put plainly: Dose Response confirmation of uHTS hits for small molecule antagonists of the CRF-binding protein and CRF-R2 receptor complex. It counts as functional. As to conditions: read-out: IC50_Mean.
Data set [7] is described as follows: cytotoxicity toward NIH3T3 fibroblasts, dose response, counter-screen, cell-based, ATP luminescence, mouse fibroblasts (AID 2010).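 Further: cells exposed to compound for about 90 hours before reading.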 It counts as functional. Background: A counterscreen serves to expose hits that act by an unwanted route or on another target.
Data set [8] in a line: inhibitors of intracellular T. cruzi replication, confirmation, NIH3T3 host cells, beta-gal luminescence (AID 2044).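 Further: intracellular parasites grown in NIH/3T3 mouse fibroblasts as host cells; luminescent beta-galactosidase reporter signal from transgenic T. cruzi replicating inside host cells; inhibitors lower the luminescence signal.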 It counts as functional, cell-based.
The subject of a further data set is INS1. As to the kind of experiment: beta cell apoptosis inhibitors, cytokine rescue, dose response, luminescence, retest (AID 449756).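 Further: cell death triggered by IL-1 beta plus TNF-alpha plus IFN-gamma mixture; protective hits raise ATP signal compared with cytokine alone wells.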 It is filed as functional, cell-based. Particulars: Rattus norvegicus.
Another data set deals with T3, Cytochrome P450 1A2 (Homo sapiens, UniProt P05177).
T3 sequence (P05177 whole entry): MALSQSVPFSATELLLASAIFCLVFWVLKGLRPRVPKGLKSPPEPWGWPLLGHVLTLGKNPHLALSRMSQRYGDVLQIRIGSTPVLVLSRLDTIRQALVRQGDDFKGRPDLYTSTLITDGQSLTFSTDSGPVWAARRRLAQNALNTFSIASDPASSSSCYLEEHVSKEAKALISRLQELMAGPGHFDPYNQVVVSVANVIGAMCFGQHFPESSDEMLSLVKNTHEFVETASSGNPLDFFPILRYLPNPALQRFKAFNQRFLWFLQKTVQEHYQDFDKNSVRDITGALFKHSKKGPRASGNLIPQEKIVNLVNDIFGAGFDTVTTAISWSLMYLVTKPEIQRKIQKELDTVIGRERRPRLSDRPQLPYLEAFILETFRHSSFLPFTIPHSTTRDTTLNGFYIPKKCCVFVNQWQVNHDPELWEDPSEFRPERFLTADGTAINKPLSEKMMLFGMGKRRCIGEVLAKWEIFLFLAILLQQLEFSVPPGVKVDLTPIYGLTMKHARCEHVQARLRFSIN

In the next data set the target is Cytochrome P450 2C19 (Homo sapiens, UniProt P33261). Put plainly: Cytochrome panel assay with activity outcomes. Panel member name: p450-cyp2c19 Compounds with AC50 equal or less than 10 uM are considered active. It counts as functional.
Cytochrome P450 2C19, sequence (P33261 whole entry): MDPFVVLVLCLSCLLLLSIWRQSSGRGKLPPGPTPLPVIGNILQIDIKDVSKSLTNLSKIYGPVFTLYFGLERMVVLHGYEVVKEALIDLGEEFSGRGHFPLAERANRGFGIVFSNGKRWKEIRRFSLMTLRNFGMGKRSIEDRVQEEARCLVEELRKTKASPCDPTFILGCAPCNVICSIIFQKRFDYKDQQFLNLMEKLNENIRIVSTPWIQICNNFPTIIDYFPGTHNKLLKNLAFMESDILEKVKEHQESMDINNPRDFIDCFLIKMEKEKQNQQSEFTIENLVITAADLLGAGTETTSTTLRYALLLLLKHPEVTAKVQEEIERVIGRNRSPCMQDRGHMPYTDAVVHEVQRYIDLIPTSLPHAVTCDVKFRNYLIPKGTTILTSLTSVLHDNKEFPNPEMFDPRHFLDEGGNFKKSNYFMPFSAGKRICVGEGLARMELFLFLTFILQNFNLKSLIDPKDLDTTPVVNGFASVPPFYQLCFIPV
Another data set has as its target Cytochrome P450 3A4 (Homo sapiens, UniProt P08684).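 Further: CYP3A4 tested as one member of a cytochrome P450 panel screen.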
The next data set concerns the target Cytochrome P450 2C9 (Homo sapiens, UniProt P11712).

The source made the active and inactive calls.

Cytochrome P450 2C9, sequence (P11712 whole entry): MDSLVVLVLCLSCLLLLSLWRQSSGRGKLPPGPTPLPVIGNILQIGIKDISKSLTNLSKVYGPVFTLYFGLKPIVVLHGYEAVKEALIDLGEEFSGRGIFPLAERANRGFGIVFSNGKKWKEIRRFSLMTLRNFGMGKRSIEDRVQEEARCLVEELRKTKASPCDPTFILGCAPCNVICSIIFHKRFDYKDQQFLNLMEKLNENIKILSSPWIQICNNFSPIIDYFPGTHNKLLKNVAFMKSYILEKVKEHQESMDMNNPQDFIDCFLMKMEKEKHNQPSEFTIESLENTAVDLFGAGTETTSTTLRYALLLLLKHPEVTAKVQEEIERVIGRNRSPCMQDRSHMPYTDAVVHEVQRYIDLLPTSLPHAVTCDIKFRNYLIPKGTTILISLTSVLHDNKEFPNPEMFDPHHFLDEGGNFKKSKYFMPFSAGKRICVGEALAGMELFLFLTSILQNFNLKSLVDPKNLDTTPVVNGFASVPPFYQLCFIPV
Cytochrome P450 3A4, sequence (P08684 whole entry): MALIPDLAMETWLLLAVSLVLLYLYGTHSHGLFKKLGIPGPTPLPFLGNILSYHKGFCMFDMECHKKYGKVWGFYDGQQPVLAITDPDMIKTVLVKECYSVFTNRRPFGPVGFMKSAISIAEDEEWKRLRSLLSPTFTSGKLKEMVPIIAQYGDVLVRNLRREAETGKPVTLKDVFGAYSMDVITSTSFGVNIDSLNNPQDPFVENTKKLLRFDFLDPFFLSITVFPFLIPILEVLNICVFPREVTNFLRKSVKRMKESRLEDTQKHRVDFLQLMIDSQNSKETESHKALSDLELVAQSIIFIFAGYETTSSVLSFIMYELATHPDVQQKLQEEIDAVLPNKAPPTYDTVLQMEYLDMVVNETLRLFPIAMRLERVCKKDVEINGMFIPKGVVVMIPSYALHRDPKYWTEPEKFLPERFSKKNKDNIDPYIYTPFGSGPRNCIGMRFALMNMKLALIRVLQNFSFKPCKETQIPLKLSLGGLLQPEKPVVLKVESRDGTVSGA

Turning to `COc1ccc(CNC(=O)CN(Cc2ccccc2)C(=O)CCC(=O)Nc2nccs2)cc1`, in data set [1], the EC50 is > 260 µM (inactive).
Still for that read-out and setting: the value for `CC(C)CC(=O)Nc1ccc(N2CCOCC2)cc1` was > 260 µM (inactive).
`CC1(c2ccc([N+](=O)[O-])cc2)NC(=O)N(CC(=O)c2ccc3c(c2)OCO3)C1=O` (centres undefined): the EC50 in data set [2] is 12.1 µM (active); in data set [1], > 260 µM (inactive).
As for `Cc1cccc(-n2c(SCc3ccc(C#N)cc3)nnc2-c2c[nH]c3ccccc23)c1`, the EC50 in [3] was > 120 µM (not active); in data set [4], > 120 µM (not active); in data set [5], 25.7 µM (active).
Turning to `CCOc1ccc(S(=O)(=O)N2CN(c3cccc(C(C)=O)c3)c3nc4ccccc4nc32)cc1`, the EC50 in [2] is > 53 µM (inactive). For the same molecule, the IC50 in data set [6] was < 0.368 µM (active).
On the same counts, the results for `COc1ccccc1C1SCCN1S(=O)(=O)c1ccccc1` (centres undefined) are > 53 µM (inactive) and > 47.1 µM (inactive).
As a reminder, the AC50 is the midpoint of the concentration-response curve, whichever way the signal moves. Regarding `CS(=O)(=O)N(CC(=O)Nc1ccc(CC#N)cc1)c1ccc(C23CC4CC(CC(C4)C2)C3)cc1`, the EC50 in data set [7] is > 60 µM (not active); in data set [8], 2.35 µM (active); in data set [1], > 260 µM (inactive). Further, the half-maximal activity concentration (AC50) in the data set on INS1 was 6.44 µM (active).
Turning to `CCOC(=O)CSc1nc2c(sc3ccc([N+](=O)[O-])cc32)c(=O)n1Cc1ccco1`, the EC50 in data set [1] was > 260 µM (inactive).
As for `COc1cccc(C(=O)OCC(=O)NCCC2=CCCCC2)c1`, the EC50 in data set [2] is > 53 µM (inactive). Further, in [6], the IC50 was > 47.1 µM (inactive).
Consider `CCCNC(=O)c1c(CSc2ccc(Cl)cc2)noc1C(=O)NCc1ccccc1`, for which, in [1], the EC50 was > 260 µM (inactive).
Turning to `Cc1nnc(C)n1/N=C/c1cccs1`, the half-maximal activity concentration (AC50) on Cytochrome P450 1A2 is 17.8 µM (inconclusive); at Cytochrome P450 2C19, “inconclusive”. The EC50 in data set [2] was > 53 µM (inactive). The IC50 in [6] is > 47.1 µM (inactive).
Consider `C=C(C)COc1ccc(-c2nc(N)ncc2-c2ccc(OC)c(OC)c2)c(O)c1`, for which the results for the EC50 in [3], in [4] and in [5] were > 120 µM (not active), 33.7 µM (active) and 15.7 µM (active), respectively.
As for `CC(Oc1ccc(Cl)cc1)C(=O)OCC(=O)Nc1ncc(Cl)cc1Cl` (centres undefined), the EC50 in data set [1] was > 260 µM (inactive).
Regarding `COc1cc(NC(=O)c2cc3ccccc3o2)c(OC)cc1Br`, the AC50 at Cytochrome P450 1A2 was 2.24 µM (inconclusive); on Cytochrome P450 3A4, 10 µM (inconclusive); on Cytochrome P450 2C9, 0.112 µM (inconclusive). For the same molecule, the EC50 was > 120 µM (not active) in data set [3] and 14.7 µM (active) in data set [5].
In the case of `COc1ccccc1/C=C/c1nc(S(=O)(=O)c2ccccc2)c(N(C)C)o1`, the EC50 in [2] is > 53 µM (inactive). The IC50 in [6] is < 0.368 µM (active).
For the molecule `Cc1cccc(C)c1/N=C1\SC(CC(=O)Nc2c(C)cccc2C)C(=O)N1CCc1ccccn1` (centres undefined), the EC50 in [3] is 0.46 µM (active); in [4] it was 10.2 µM (active); in [5] it was 95.8 µM (active).
Turning to `CCOc1cc(/C=N\NC(=O)C2C(=O)NCC2c2ccccc2)ccc1OC` (centres undefined), the EC50 is 5.59 µM (active) in data set [2], > 120 µM (not active) in [3], > 120 µM (not active) in data set [4] and > 120 µM (not active) in data set [5].
With `Cc1ccc(OCC(=O)N2N=C(C(F)(F)F)CC2(O)C(C)(C)C)cc1C` (centres undefined), the EC50 in data set [3] was 21.8 µM (active); in data set [4], 102 µM (active); in data set [5] it was 33.1 µM (active).
